Measured values published in patent US8871738B2, “Fused bicyclic oxazolidinone CETP inhibitor” (Merck Sharp & Dohme Corp., priority 2011, dated 2014).
Like-named read-outs stand apart in the source and are kept apart here.

Assays:
[1] = patients treated with anacetrapib along with baseline statin therapy compared with just a statin; cited from earlier work
[2] = target: endogenous CETP from serum (Homo sapiens (Human), UniProt P11597); assay: RTA assay in 95% human serum (CETP-catalyzed CE and TG transfer, endogenous CETP); format: biochemical
Sequence of endogenous CETP from serum (P11597 18-493 limits assumed): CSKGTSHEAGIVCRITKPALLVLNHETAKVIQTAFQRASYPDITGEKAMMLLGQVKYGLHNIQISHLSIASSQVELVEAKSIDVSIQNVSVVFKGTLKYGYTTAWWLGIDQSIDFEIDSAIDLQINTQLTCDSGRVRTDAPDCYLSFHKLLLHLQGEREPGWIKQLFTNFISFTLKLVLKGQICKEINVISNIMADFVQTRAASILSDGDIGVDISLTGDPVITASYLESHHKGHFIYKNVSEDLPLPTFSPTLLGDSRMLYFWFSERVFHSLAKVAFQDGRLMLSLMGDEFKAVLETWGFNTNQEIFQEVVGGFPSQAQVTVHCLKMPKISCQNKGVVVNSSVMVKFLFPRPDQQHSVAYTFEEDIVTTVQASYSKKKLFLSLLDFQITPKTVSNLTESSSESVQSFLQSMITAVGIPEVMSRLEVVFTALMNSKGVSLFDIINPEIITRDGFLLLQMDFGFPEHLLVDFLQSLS

[3] = RTA assay in 95% human serum, read-out: IC50

For `COc1cc(F)c(C(C)C)cc1-c1ccc(C(F)(F)F)cc1CN1C(=O)O[C@H](c2cc(C(F)(F)F)cc(C(F)(F)F)c2)[C@@H]1C` [anacetrapib], the “decrease of LDL-C” value [1] is listed as 40% and the “increase of HDL-C” value [1] is listed as 138%.

For `COc1ccc(CCc2nnc(N)o2)cc1-c1ccc(C(F)(F)F)cc1[C@@H]1CCC[C@H]2[C@@H](c3cc(C(F)(F)F)cc(C(F)(F)F)c3)OC(=O)N12` [Example 82, (1R,5S,8aS)-5-{5′-[2-(5-amino-1,3,4-oxadiazol-2-yl)ethyl]-2′-methoxy-4-(trifluoromethyl)biphenyl-2-yl}-1-[3,5-bis(trifluoromethyl)phenyl]hexahydro[1,3]oxazolo[3,4-a]pyridin-3-one], the IC50 ([2]; RTA assay, 95% human serum, read-out: RTA (95% HS)) was 1320 nM.

`N#Cc1cscc1-c1ccc(C(F)(F)F)cc1[C@@H]1CC[C@H]2[C@@H](c3cc(C(F)(F)F)cc(C(F)(F)F)c3)OC(=O)N12` [Example 12, 4-[2-{(1R,5S,7aS)-1-[3,5-bis(trifluoromethyl)phenyl]-3-oxotetrahydro-1H-pyrrolo[1,2-c][1,3]oxazol-5-yl}-4-(trifluoromethyl)phenyl]thiophene-3-carbonitrile] showed an IC50 [2, 3] of 266 nM.

`COc1ccc(C#N)cc1-c1ccc(C(F)(F)F)cc1[C@@H]1CC[C@H]2[C@@H](c3cc(C(F)(F)F)cc(C(F)(F)F)c3)OC(=O)N12` [Example 9, 2′-{(1R,5S,7aS)-1-[3,5-bis(trifluoromethyl)phenyl]-3-oxotetrahydro-1H-pyrrolo[1,2-c][1,3]oxazol-5-yl}-6-methoxy-4′-(trifluoromethyl)biphenyl-3-carbonitrile] gave an IC50 [2, 3] of 224 nM.

In the case of `COc1ccc(Cl)cc1-c1ccc(C(F)(F)F)cc1[C@@H]1CC[C@H]2[C@@H](c3cc(C(F)(F)F)cc(C(F)(F)F)c3)OC(=O)N12` [Example 14, (1R,5S,7aS)-1-[3,5-bis(trifluoromethyl)phenyl]-5-[5′-chloro-2′-methoxy-4-(trifluoromethyl)biphenyl-2-yl]tetrahydro-1H-pyrrolo[1,2-c][1,3]oxazol-3-one], the IC50 [2, 3] is reported as 233 nM.

`COC(=O)c1ccc(-c2cc(-c3ccc(C(F)(F)F)cc3[C@@H]3CC[C@H]4[C@@H](c5cc(C(F)(F)F)cc(C(F)(F)F)c5)OC(=O)N34)c(OC)cc2F)c(C)c1` [Example 6, methyl 2″-{(1R,5S,7aS)-1-[3,5-bis(trifluoromethyl)phenyl]-3-oxotetrahydro-1H-pyrrolo[1,2-c][1,3]oxazol-5-yl}-6′-fluoro-4′-methoxy-2-methyl-4″- (trifluoromethyl)-1,1′:3′,1″- terphenyl-4-carboxylate] gave an IC50 [2, 3] of 641 nM.

`O=C1O[C@H](c2cc(C(F)(F)F)cc(C(F)(F)F)c2)[C@@H]2CC[C@@H](c3cc(C(F)(F)F)ccc3-c3cc(F)ccc3F)N12` [Example 25, (1R,5S,7aS)-1-[3,5-bis(trifluoromethyl)phenyl]-5-[2′,5′-difluoro-4-(trifluoromethyl)biphenyl-2-yl]tetrahydro-1H-pyrrolo[1,2-c][1,3]oxazol-3-one] gave an IC50 [2, 3] of 104 nM.

Work on `COc1ncc(Cl)cc1-c1ccc(C(F)(F)F)cc1[C@@H]1CC[C@H]2[C@@H](c3cc(C(F)(F)F)cc(C(F)(F)F)c3)OC(=O)N12` [Example 11, (1R,5S,7aS)-1-[3,5-bis(trifluoromethyl)phenyl]-5-[2-(5-chloro-2-methoxypyridin-3-yl)-5-(trifluoromethyl)phenyl]tetrahydro-1H-pyrrolo[1,2-c][1,3]oxazol-3-one] yielded an IC50 [2, 3] of 294 nM.

In the case of `Cc1ccc(Cl)cc1-c1ccc(C(F)(F)F)cc1[C@@H]1CC[C@H]2[C@@H](c3cc(C(F)(F)F)cc(C(F)(F)F)c3)OC(=O)N12` [Example 26, (1R,5S,7aS)-1-[3,5-bis(trifluoromethyl)phenyl]-5-[5′-chloro-2′-methyl-4-(trifluoromethyl)biphenyl-2-yl]tetrahydro-1H-pyrrolo[1,2-c][1,3]oxazol-3-one], the IC50 [2, 3] is reported as 1220 nM.
